Laboratory results as given in ChEMBL document CHEMBL1201862, “PubChem BioAssay data set” (2004).
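Dose response: 5 concentrations. Exposure: 48 h. Format: 96-well plates. Endpoint: linear interpolation; highest concentration if not reached. GI50 = concentration required for 50% inhibition of growth.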 Calls of active or inactive are those of the source. Cut-off read from the data, not from the text of the source: active = GI50 up to about 1.1 µM and inactive = higher.

What was measured:
Test in all cases: NCI anticancer screen, dose series, 48 h
[1] = tested on: MDA-MB-435
[2] = tested on: HCC 2998
[3] = tested on: HCT-116
[4] = tested on: HCT-15
[5] = tested on: TK-10
[6] = tested on: NCI-H522
[7] = tested on: SF-268
[8] = tested on: NCI-H226
[9] = tested on: SF-539
[10] = tested on: 786-0
[11] = tested on: HOP-92
[12] = tested on: T47D
[13] = tested on: LOX IMVI
[14] = tested on: DU-145
[15] = tested on: OVCAR-5
[16] = tested on: PC-3
[17] = tested on: SK-OV-3
[18] = tested on: COLO 205
[19] = tested on: SN12C
[20] = tested on: ACHN
[21] = tested on: MOLT-4
[22] = tested on: SF-295
[23] = tested on: A549
[24] = tested on: K562
[25] = tested on: NCI-H460
[26] = tested on: A498
[27] = tested on: SK-MEL-2
[28] = tested on: RPMI-8226
[29] = tested on: SW-620
[30] = tested on: OVCAR-3
[31] = tested on: SR
[32] = tested on: OVCAR-8
[33] = tested on: EKVX
[34] = tested on: M14
[35] = tested on: Hs-578T
[36] = tested on: BT-549
[37] = tested on: NCI-H23
[38] = tested on: Malme-3M
[39] = tested on: UO-31
[40] = tested on: MDA-N
[41] = tested on: KM12
[42] = tested on: MCF7
[43] = tested on: IGROV-1
[44] = tested on: RXF 393
[45] = tested on: U-251
[46] = tested on: NCI/ADR-RES
[47] = tested on: OVCAR-4
[48] = tested on: SNB-75
[49] = tested on: HT-29
[50] = tested on: CCRF-CEM
[51] = tested on: MDA-MB-231
[52] = tested on: CAKI-1
[53] = tested on: HOP-62
[54] = tested on: HL-60
[55] = tested on: UACC-257
[56] = tested on: SK-MEL-28
[57] = tested on: SK-MEL-5
[58] = tested on: SNB-19
[59] = tested on: UACC-62

CCC1=[N+](CC)CCN1CC
GI50 [1]: > 100 µM (inactive) | GI50 [2]: > 100 µM (inactive) | GI50 [3]: > 100 µM (inactive) | GI50 [4]: > 100 µM | GI50 [5]: > 100 µM (inactive) | GI50 [6]: > 100 µM (inactive) | GI50 [7]: > 100 µM (inactive) | GI50 [8]: > 100 µM (inactive) | GI50 [9]: > 100 µM (inactive) | GI50 [10]: > 100 µM (inactive) | GI50 [11]: > 100 µM (inactive) | GI50 [12]: > 100 µM (inactive) | GI50 [13]: > 100 µM (inactive) | GI50 [14]: > 100 µM (inactive) | GI50 [15]: > 100 µM (inactive) | GI50 [16]: > 100 µM (inactive) | GI50 [17]: > 100 µM (inactive) | GI50 [18]: > 100 µM (inactive) | GI50 [19]: > 100 µM (inactive) | GI50 [20]: > 100 µM (inactive) | GI50 [21]: > 100 µM (inactive) | GI50 [22]: > 100 µM (inactive) | GI50 [23]: > 100 µM (inactive) | GI50 [24]: > 100 µM (inactive) | GI50 [25]: > 100 µM (inactive) | GI50 [26]: > 100 µM (inactive) | GI50 [27]: > 100 µM (inactive) | GI50 [28]: > 100 µM (inactive) | GI50 [29]: > 100 µM (inactive) | GI50 [30]: > 100 µM (inactive) | GI50 [31]: > 100 µM (inactive) | GI50 [32]: > 100 µM (inactive) | GI50 [33]: > 100 µM (inactive) | GI50 [34]: > 100 µM (inactive) | GI50 [35]: > 100 µM (inactive) | GI50 [36]: > 100 µM (inactive) | GI50 [37]: > 100 µM (inactive) | GI50 [38]: > 100 µM (inactive) | GI50 [39]: > 100 µM (inactive) | GI50 [40]: > 100 µM (inactive) | GI50 [41]: > 100 µM (inactive) | GI50 [42]: > 100 µM (inactive) | GI50 [43]: > 100 µM (inactive) | GI50 [44]: > 100 µM (inactive) | GI50 [45]: > 100 µM (inactive) | GI50 [46]: > 100 µM (inactive) | GI50 [47]: > 100 µM (inactive) | GI50 [48]: > 100 µM (inactive) | GI50 [49]: > 100 µM (inactive) | GI50 [50]: > 100 µM (inactive) | GI50 [51]: > 100 µM (inactive) | GI50 [52]: > 100 µM (inactive) | GI50 [53]: > 100 µM (inactive) | GI50 [54]: > 100 µM (inactive) | GI50 [55]: > 100 µM (inactive) | GI50 [56]: > 100 µM (inactive) | GI50 [57]: > 100 µM (inactive) | GI50 [58]: > 100 µM (inactive)

COCn1c2ccc(OC(C)=O)cc2c2c(=O)oc(N(C)C)nc21
GI50 [1]: > 100 µM (inactive) | GI50 [2]: > 100 µM (inactive) | GI50 [3]: > 100 µM (inactive) | GI50 [4]: > 100 µM | GI50 [5]: > 100 µM (inactive) | GI50 [6]: > 100 µM (inactive) | GI50 [8]: > 100 µM (inactive) | GI50 [9]: > 100 µM (inactive) | GI50 [10]: > 100 µM (inactive) | GI50 [11]: > 100 µM (inactive) | GI50 [12]: > 100 µM (inactive) | GI50 [13]: > 100 µM (inactive) | GI50 [14]: > 100 µM (inactive) | GI50 [15]: > 100 µM (inactive) | GI50 [16]: > 100 µM (inactive) | GI50 [17]: > 100 µM (inactive) | GI50 [18]: > 100 µM (inactive) | GI50 [19]: > 100 µM (inactive) | GI50 [20]: > 100 µM (inactive) | GI50 [21]: > 100 µM (inactive) | GI50 [22]: > 100 µM (inactive) | GI50 [23]: > 100 µM (inactive) | GI50 [24]: > 100 µM (inactive) | GI50 [25]: > 100 µM (inactive) | GI50 [26]: > 100 µM (inactive) | GI50 [27]: > 100 µM (inactive) | GI50 [28]: > 100 µM (inactive) | GI50 [29]: > 100 µM (inactive) | GI50 [31]: > 100 µM (inactive) | GI50 [32]: > 100 µM (inactive) | GI50 [33]: > 100 µM (inactive) | GI50 [34]: > 100 µM (inactive) | GI50 [35]: > 100 µM (inactive) | GI50 [36]: > 100 µM (inactive) | GI50 [37]: > 100 µM (inactive) | GI50 [38]: > 100 µM (inactive) | GI50 [40]: > 100 µM (inactive) | GI50 [41]: > 100 µM (inactive) | GI50 [42]: > 100 µM (inactive) | GI50 [43]: > 100 µM (inactive) | GI50 [59]: > 100 µM (inactive) | GI50 [44]: > 100 µM (inactive) | GI50 [45]: > 100 µM (inactive) | GI50 [46]: > 100 µM (inactive) | GI50 [47]: > 100 µM (inactive) | GI50 [48]: > 100 µM (inactive) | GI50 [49]: > 100 µM (inactive) | GI50 [50]: > 100 µM (inactive) | GI50 [51]: > 100 µM (inactive) | GI50 [52]: > 100 µM (inactive) | GI50 [53]: > 100 µM (inactive) | GI50 [54]: > 100 µM (inactive) | GI50 [55]: > 100 µM (inactive) | GI50 [56]: > 100 µM (inactive) | GI50 [57]: > 100 µM (inactive) | GI50 [58]: > 100 µM (inactive)
